Assay results taken from paper PMC5898815 (Journal of medicinal chemistry, 2018).
pKd: −log10 of the molar value. Where two headings read alike, the source gives them in different places.

Experiments:
[1] = molecular target: DCN1-UBE2M protein-protein interaction (Homo sapiens, UniProt Q96GG9); format: binding
DCN1 and DCN2 = experiment: Pulse-chase isoform selectivity, NEDD8 transfer from UBE2M to CUL2; format: biochemical, human; conditions: pulse-chase assay against all five DCN family members
PAMPA permeability = format: in vitro ADME
RBX1 = RBX1 (Homo sapiens, UniProt P62877); experiment: DCN1-independent neddylation of cullins catalyzed solely by RBX1; format: biochemical
RBX1, sequence (P62877 whole entry, species assumed): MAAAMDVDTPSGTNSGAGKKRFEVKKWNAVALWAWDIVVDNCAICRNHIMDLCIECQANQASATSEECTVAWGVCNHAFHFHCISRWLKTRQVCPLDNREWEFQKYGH
RBX1, sequence (Q13617 whole entry partner, species assumed): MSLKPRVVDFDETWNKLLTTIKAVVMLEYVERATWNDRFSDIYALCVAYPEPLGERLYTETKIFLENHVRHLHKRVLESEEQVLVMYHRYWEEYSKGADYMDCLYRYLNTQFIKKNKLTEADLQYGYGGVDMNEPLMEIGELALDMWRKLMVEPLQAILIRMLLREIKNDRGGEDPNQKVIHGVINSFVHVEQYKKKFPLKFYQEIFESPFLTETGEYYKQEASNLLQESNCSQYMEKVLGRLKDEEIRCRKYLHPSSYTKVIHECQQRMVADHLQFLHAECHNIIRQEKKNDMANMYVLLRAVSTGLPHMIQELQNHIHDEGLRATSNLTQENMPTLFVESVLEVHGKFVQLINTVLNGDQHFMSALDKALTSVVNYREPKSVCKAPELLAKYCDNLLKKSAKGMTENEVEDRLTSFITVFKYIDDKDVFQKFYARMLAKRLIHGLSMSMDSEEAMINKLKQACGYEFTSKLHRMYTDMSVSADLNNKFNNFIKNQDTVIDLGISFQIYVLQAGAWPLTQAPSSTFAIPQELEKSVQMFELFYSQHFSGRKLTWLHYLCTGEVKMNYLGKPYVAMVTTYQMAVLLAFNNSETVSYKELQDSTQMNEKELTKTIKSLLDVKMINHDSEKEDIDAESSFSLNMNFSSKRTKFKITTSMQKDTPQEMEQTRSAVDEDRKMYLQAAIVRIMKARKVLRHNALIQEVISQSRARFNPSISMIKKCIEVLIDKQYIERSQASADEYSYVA

DCN1 [2] = molecular target: T1, DCN1 (Homo sapiens, UniProt Q96GG9); format: biochemical
Target sequence in this assay (Q96GG9 62-259 limits assumed): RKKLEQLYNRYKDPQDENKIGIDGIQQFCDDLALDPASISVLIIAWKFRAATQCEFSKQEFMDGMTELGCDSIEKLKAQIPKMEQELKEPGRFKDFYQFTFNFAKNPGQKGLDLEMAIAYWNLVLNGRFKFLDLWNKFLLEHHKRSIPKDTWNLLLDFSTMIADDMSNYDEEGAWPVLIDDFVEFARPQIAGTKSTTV

DCN1 [3] = molecular target: T1, DCN1; format: cell-based; conditions: HCC95 cells, 10 μM, 1 h, 53 °C
Target sequence in this assay (Q96GG9 whole entry): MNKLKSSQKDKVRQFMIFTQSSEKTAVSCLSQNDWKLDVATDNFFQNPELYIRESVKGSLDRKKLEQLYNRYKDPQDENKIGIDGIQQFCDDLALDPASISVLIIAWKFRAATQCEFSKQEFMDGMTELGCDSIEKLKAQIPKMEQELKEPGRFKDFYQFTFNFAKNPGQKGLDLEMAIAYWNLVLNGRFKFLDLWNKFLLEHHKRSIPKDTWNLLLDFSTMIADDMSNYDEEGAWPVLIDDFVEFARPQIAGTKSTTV

[4] = system: cullin neddylation in HCC95 cells; experiment: Western blot for inhibition of cellular cullin neddylation in HCC95 cells; format: cell-based; conditions: for Inhibition of cullin neddylation in HCC95 cells / Steady-state level of cullin neddylation for CUL1 and CUL3 / Steady-state level of cullin neddylation for CUL2, CUL4A and CUL5: 20 μM; for Inhibition of cullin neddylation in HCC95 cells: dosing at T = 0 and 24 hr, 48 hours; for Steady-state level of cullin neddylation for CUL1 and CUL3 / Steady-state level of cullin neddylation for CUL2, CUL4A and CUL5: HCC95 cells; for Accumulation of well-recognized proteasomal targets (immunoblot): acute pharmacological inhibition, Supplementary Figure 6
NEDD8 E1 enzyme = molecular target: T2, NEDD8 E1 enzyme (Homo sapiens, UniProt Q13564+Q8TBC4); experiment: Inhibition of the NEDD8 E1 activating enzyme; format: biochemical; conditions: concentrations as high as 50 μM
T2 sequence (Q8TBC4 1-463): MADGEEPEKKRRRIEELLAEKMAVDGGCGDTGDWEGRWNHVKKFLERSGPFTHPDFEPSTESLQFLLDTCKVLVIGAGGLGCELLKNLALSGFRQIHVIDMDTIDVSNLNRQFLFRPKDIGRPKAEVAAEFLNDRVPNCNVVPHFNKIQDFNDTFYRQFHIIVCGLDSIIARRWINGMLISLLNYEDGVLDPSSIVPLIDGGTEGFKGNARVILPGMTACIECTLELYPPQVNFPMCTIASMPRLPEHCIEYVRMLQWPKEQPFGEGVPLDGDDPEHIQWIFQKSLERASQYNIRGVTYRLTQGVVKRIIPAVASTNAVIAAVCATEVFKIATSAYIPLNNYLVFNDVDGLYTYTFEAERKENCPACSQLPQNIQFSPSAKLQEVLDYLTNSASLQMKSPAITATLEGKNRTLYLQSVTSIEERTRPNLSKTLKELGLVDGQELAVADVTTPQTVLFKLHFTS
T2 sequence (Q13564 1-534): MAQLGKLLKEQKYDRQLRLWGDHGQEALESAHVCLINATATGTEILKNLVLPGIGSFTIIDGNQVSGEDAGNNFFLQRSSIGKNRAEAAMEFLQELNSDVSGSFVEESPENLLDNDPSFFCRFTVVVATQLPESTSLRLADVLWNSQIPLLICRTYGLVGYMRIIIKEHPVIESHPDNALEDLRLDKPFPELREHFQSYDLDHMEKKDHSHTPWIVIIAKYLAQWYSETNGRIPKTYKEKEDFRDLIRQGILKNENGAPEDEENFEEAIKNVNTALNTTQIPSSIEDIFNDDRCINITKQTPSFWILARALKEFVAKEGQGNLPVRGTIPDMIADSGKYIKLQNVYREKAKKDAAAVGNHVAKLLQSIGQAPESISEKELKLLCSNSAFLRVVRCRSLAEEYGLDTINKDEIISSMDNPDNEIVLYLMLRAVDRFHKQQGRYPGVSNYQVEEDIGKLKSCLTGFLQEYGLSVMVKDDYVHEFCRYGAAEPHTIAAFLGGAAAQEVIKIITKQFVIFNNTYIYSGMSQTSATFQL

HCC95 cells = experiment: In vitro proliferation assay, HCC95 cells; format: cell-based
DCN3-5 = experiment: Pulse-chase isoform selectivity, NEDD8 transfer from UBE2M to CUL2; format: biochemical, human; conditions: at 50 μM
[5] = system: total cellular ubiquitination; conditions: cited from earlier work
[6] = molecular target: UBE2M (N-acetylated) (Homo sapiens) (UniProt P61081); conditions: cited from earlier work
UBE2M (N-acetylated) (Homo sapiens), sequence (P61081 whole entry): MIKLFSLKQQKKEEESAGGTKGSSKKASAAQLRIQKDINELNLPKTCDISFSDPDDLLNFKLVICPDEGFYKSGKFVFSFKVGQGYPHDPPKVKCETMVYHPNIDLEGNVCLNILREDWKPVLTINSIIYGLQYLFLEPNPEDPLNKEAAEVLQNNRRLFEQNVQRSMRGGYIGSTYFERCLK

DCN1-UBE2M protein-protein interaction, sequence (Q96GG9 62-259 limits assumed): as the sequence (Q96GG9 62-259 limits assumed) above
DCN1 (from UniProt Q96GG9), sequence (Q96GG9 whole entry): as the sequence (Q96GG9 whole entry) above

Cc1cccc(NC(=O)NC2CCN(Cc3ccccc3)CC2)c1 [Compound 26]
Potency in the TR-FRET assay (in words) [1]: practically inactive

CC(=O)O[C@H]1CN(Cc2ccccc2)CC[C@@H]1NC(=O)Nc1cccc(C(F)(F)F)c1 [Compound 34, (3S,4S)-1-benzyl-4-(3-(3-(trifluoromethyl)phenyl)ureido)piperidin-3-yl acetate]
Potency in the TR-FRET assay (in words) [1]: did not possess improved potency compared to our initial HTS hit 1

CCCN1CCC(N(Cc2ccccc2)C(=O)Nc2cccc(C(F)(F)F)c2)CC1 [Compound 42]
Selectivity for inhibiting neddylation activity of DCN1 and DCN2 over DCN3-5 (DCN1 and DCN2): selective and approximately equipotent inhibition | Pampa (PAMPA permeability): 1800 ± 1 ×10^−6 cm/s

CCCN1CCC(N(Cc2cc(F)cc(C(F)(F)F)c2)C(=O)Nc2cccc(C(F)(F)F)c2)CC1 [Compound 46]
Inhibition of DCN1-independent neddylation of cullins catalyzed solely by RBX1 (RBX1): do not inhibit | Pampa (PAMPA permeability): >0.0022 cm/s

CCCCN1CCC(N(Cc2ccccc2)C(=O)Nc2cccc(C(F)(F)F)c2)CC1 [Compound 49, 1-benzyl-1-(1-butylpiperidin-4-yl)-3-(3-(trifluoromethyl)phenyl)urea]
Inhibition of DCN1 stimulated NEDD8 transfer from UBE2F to the cullins (DCN1 [2]): inhibit | Thermal stability of the DCN1 protein (CETSA) (DCN1 [3]): clearly enhanced | Inhibition of DCN1-independent neddylation of cullins catalyzed solely by RBX1 (RBX1): do not inhibit | Inhibition of cullin neddylation in HCC95 cells [4]: inhibited neddylation | Steady-state level of cullin neddylation for CUL1 and CUL3 [4]: selectively decreases | Steady-state level of cullin neddylation for CUL2, CUL4A and CUL5 [4]: relatively unaffected | Accumulation of well-recognized proteasomal targets (immunoblot) [4]: failed to cause gross accumulation | Inhibition of the E1 activating enzyme for NEDD8 (NEDD8 E1 enzyme): do not inhibit | Growth inhibition of monolayer cultures at 20 μM (HCC95 cells): only minimally growth inhibitory | Pampa (PAMPA permeability): >0.0022 cm/s

CCCC(C)N1CCC(N(Cc2ccccc2)C(=O)Nc2cccc(C(F)(F)F)c2)CC1 (stereo not shown) [Compound 52, 1-benzyl-1-(1-(pentan-2-yl)piperidin-4-yl)-3-(3-(trifluoromethyl)phenyl)urea]
Inhibition of DCN1 stimulated NEDD8 transfer from UBE2F to the cullins (DCN1 [2]): inhibit | Inhibition of neddylation activity of DCN3-5 (DCN3-5): slight activity | Thermal stability of the DCN1 protein (CETSA) (DCN1 [3]): clearly enhanced | Inhibition of DCN1-independent neddylation of cullins catalyzed solely by RBX1 (RBX1): do not inhibit | Inhibition of cullin neddylation in HCC95 cells [4]: inhibited neddylation | Steady-state level of cullin neddylation for CUL1 and CUL3 [4]: selectively decreases | Steady-state level of cullin neddylation for CUL2, CUL4A and CUL5 [4]: relatively unaffected | Accumulation of well-recognized proteasomal targets (immunoblot) [4]: failed to cause gross accumulation | Inhibition of the E1 activating enzyme for NEDD8 (NEDD8 E1 enzyme): do not inhibit | Growth inhibition of monolayer cultures at 20 μM (HCC95 cells): only minimally growth inhibitory | Pampa (PAMPA permeability): 1400 ±39 ×10^−6 cm/s

O=C(Nc1cccc(C(F)(F)F)c1)N(Cc1ccccc1)C1CCN(Cc2ccc3c(c2)OCO3)CC1 [Compound 70]
Pampa (PAMPA permeability; mean ± SD): >0.0022 cm/s

O=C(Nc1cccc(C(F)(F)F)c1)N(Cc1ccccc1)C1CCN(Cc2ccc3c(c2)OCCO3)CC1 [Compound 71]
Pampa (PAMPA permeability; mean ± SD): >0.0022 cm/s

CC(C)(C)N1CCC(N(Cc2ccc3c(c2)OCO3)C(=O)Nc2cccc(C(F)(F)F)c2)CC1 [Compound 73]
Inhibition of DCN1-independent neddylation of cullins catalyzed solely by RBX1 (RBX1): do not inhibit

CCCCN1CCC(N(Cc2ccccc2)C(=O)Nc2cccnc2)CC1 [NAcM-NEG, reference compound]
Thermal stability of the DCN1 protein (CETSA) (DCN1 [3]): largely degraded

NS(=O)(=O)OC[C@@H]1C[C@@H](n2ccc3c(N[C@H]4CCc5ccccc54)ncnc32)C[C@@H]1O [Pevonedistat, reference compound]
Inhibition of cullin neddylation in cells by positive control ([4]; MLN4924 1 μM, single dose, 48 hours (Figure 7)): completely inhibits all cullin neddylation | Reduction of total cellular ubiquitination [5]: 10-20%

DCN1 (from UniProt Q96GG9)
pKd [6]: 6.00
